From patent US7550451B2, “Progesterone receptor modulators with increased antigonadotropic activity for female birth control and hormone replacement therapy” (Bayer Schering Pharma AG, priority 2002, dated 2009)

Columns and labels:
Progesterone receptor = target: T1, Progesterone receptor (Oryctolagus cuniculus, UniProt P06186); assay: Receptor binding affinity, progesterone receptor (competitive binding, 3H-ORG 2058); details: Progesterone = 100%; uterus cytosol of estradiol-primed rabbit
T1 construct: Uterus cytosol of the estradiol-primed rabbit; from tissue; host or cells: uterus cytosol of estradiol-primed rabbit
T1 sequence (P06186 1-930): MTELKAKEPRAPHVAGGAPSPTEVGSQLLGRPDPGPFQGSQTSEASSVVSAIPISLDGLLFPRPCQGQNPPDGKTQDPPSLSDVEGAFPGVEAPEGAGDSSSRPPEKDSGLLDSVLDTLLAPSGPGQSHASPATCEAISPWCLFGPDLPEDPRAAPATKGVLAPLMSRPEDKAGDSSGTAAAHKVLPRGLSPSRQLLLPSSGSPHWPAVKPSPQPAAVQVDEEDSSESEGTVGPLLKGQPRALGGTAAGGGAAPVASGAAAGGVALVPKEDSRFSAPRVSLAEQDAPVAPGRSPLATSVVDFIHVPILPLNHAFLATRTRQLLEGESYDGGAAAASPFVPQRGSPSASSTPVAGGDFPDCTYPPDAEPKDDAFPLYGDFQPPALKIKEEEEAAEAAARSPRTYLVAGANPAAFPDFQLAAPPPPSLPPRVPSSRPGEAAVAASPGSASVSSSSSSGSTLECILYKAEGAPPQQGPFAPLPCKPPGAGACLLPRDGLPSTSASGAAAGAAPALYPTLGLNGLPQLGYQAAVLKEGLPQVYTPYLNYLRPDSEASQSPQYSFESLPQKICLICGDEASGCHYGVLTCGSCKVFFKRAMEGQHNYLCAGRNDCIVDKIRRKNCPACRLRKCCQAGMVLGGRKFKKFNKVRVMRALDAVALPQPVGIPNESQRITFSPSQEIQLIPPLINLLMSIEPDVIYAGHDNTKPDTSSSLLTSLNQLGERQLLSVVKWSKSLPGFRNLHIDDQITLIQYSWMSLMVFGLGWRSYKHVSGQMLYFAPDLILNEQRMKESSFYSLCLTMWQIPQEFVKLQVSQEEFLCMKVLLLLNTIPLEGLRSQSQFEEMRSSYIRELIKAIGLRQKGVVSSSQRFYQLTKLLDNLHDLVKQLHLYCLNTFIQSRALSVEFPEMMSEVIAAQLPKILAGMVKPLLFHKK
Description: (§1) The receptor binding affinity was determined by competitive binding of a specifically binding ^3H-labeled hormone (tracer) and the compound to be tested on receptors in the cytosol from animal target organs. In this case, receptor saturation and reaction equilibrium were sought.
(§2) The tracers and increasing concentrations of the compound to be tested (competitor) were co-incubated with the receptor-containing cytosol fraction at 0-4° C. over 18 hours. After separation of the unbonded tracer with carbon-dextran suspension, the receptor-bonded tracer portion was measured for each concentration, and the IC50 was determined from the concentration sequence. As a quotient of the IC50 values of the reference substance and the compound to be tested (×100%), the relative molar binding affinity (RBA) was calculated (RBA of the reference substance=100%).
Uterus cytosol of the estradiol-primed rabbit; homogenized in TED buffer (20 mmol of Tris/HCl, pH 7.4; 1 mmol of ethylenediamine tetraacetate, 2 mmol of dithiothreitol) with 250 mmol of saccharose; stored at −30° C. Tracer: ^3H-ORG 2058, 5 nmol; reference substance: progesterone.

Glucocorticoid receptor = target: T2, Glucocorticoid receptor (Rattus norvegicus, UniProt P06536); assay: Receptor binding affinity, glucocorticoid receptor (competitive binding, 3H-dexamethasone); details: Dexamethasone = 100%; thymus cytosol of adrenalectomized rat
T2 construct: Thymus cytosol of the adrenalectomized rat; from tissue; host or cells: thymus cytosol of adrenalectomized rat
T2 sequence (P06536 1-795): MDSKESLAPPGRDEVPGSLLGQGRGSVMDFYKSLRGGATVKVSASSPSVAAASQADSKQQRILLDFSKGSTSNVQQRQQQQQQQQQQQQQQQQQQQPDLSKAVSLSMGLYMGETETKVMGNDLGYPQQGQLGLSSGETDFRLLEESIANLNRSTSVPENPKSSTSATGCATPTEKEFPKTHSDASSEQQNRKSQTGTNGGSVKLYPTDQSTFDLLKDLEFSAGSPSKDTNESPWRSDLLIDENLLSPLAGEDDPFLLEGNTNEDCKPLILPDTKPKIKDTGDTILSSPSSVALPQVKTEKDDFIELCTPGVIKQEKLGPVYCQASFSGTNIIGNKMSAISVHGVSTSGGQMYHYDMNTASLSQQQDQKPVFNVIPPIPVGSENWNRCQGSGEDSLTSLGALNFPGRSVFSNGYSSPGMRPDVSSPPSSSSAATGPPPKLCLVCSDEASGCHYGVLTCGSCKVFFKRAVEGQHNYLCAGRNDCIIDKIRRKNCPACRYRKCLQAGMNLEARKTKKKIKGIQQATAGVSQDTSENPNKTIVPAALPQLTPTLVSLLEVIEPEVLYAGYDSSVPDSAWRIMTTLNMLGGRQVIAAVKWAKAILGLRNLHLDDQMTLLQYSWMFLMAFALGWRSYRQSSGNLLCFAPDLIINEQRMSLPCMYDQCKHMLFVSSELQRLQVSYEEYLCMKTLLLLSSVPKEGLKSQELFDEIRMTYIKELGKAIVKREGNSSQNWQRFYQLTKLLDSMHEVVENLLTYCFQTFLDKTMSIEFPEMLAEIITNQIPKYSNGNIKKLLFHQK
Description: as §1, §2
Thymus cytosol of the adrenalectomized rat, thymi stored at −30° C.; buffer: TED. Tracer: ^3H-Dexamethasone, 20 nmol; reference substance: dexamethasone.

Androgen receptor = target: T3, Androgen receptor (Rattus norvegicus, UniProt P15207); assay: Receptor binding affinity, androgen receptor (competitive binding, 3H-metribolone); details: prostate cytosol of castrated rat; for AR relative molar binding affinity (RBA) a) against RU 1881: reference RU 1881 (metribolone); for AR relative molar binding affinity (RBA) b) against dihydrotestosterone (DHT): reference dihydrotestosterone
T3 construct: Prostate cytosol of the castrated rat; from tissue; host or cells: prostate cytosol of castrated rat
T3 sequence (P15207 1-902): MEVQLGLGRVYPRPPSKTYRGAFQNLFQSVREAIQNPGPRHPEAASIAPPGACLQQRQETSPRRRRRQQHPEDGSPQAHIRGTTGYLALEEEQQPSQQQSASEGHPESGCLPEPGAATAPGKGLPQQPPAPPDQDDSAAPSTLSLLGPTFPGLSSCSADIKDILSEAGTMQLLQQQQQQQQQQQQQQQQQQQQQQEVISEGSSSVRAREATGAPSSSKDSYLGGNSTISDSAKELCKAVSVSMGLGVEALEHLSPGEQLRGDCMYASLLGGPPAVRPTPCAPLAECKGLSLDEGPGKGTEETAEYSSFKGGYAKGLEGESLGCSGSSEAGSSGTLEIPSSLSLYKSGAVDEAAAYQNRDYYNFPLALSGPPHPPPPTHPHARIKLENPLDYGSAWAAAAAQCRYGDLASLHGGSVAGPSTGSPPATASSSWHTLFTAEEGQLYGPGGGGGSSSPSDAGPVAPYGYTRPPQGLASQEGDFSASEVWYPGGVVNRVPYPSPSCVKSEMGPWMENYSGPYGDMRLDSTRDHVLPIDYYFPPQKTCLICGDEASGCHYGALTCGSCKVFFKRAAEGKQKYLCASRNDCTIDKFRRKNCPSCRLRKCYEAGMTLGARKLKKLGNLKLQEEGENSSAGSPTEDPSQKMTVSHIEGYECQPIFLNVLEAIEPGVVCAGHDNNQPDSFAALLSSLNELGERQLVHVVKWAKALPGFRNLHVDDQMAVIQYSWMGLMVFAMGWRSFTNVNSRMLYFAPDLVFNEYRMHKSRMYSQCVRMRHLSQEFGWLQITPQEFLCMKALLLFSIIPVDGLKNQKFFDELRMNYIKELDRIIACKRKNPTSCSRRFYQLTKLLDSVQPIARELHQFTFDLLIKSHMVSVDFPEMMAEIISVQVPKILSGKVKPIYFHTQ
Description: as §1, §2
Prostate cytosol of the castrated rat; prostates stored at −30° C.; buffer: TED with 10% glycerol as well as 2 μmol of triamcinolone acetonide. Tracer: ^3H-metribolone 4 nmol; reference substances: metribolone (RU 1881) or 5α-dihydrotestosterone.

| Molecule | PR relative molar binding affinity (RBA) (Progesterone receptor) | GR relative molar binding affinity (RBA) (Glucocorticoid receptor) | AR relative molar binding affinity (RBA) a) against RU 1881 (Androgen receptor) | AR relative molar binding affinity (RBA) b) against dihydrotestosterone (DHT) (Androgen receptor) |
| --- | --- | --- | --- | --- |
| C[C@]12C[C@H](c3ccc(/C=N/O)cc3)C3=C4CCC(=O)C=C4CC[C@H]3[C@@H]1CC[C@@H]2OC(=O)c1ccccc1 [Example 16] | 8% | 3% | a) 1.4% | b) 2.2% |
| CCNC(=O)O/N=C/c1ccc([C@H]2C[C@@]3(C)[C@@H](CC[C@]3(C)O)[C@@H]3CCC4=CC(=O)CCC4=C32)cc1 [Example 9, 4-[17β-Hydroxy-17α-methyl-3-oxoestra-4,9-dien-11β-yl]benzaldehyde-1-(E)-[O-(ethylamino)-carbonyl]oxime] | 161% | 25% | a) 15% | b) 23% |
| CC(=O)OC1CCC2C3CCC4=CC(=O)CCC4=C3C(c3ccc(C=NO)cc3)CC12C (stereo not drawn) [Example 3, 4-(17β-Acetoxy-3-oxoestra-4,9-dien-11β-yl)benzaldehyde-1-(E)-oxime] | 20% | 12% | – | – |
| CCNC(=O)O/N=C/c1ccc([C@H]2C[C@@]3(C)[C@@H](CC[C@@]3(O)CO)[C@@H]3CCC4=CC(=O)CCC4=C32)cc1 [Example 20, 4-[17β-Hydroxy-17α-hydroxymethyl-3-oxoestra-4,9-dien-11β-yl]benzaldehyde-1-(E)-[O-(ethylamino)-carbonyl]oxime] | 12% | 5% | a) 4% | b) 7% |
| CCNC(=O)O/N=C/c1ccc([C@H]2C[C@]3(C)[C@@H](O)CC[C@H]3[C@@H]3CCC4=CC(=O)CCC4=C32)cc1 [Example 11, 4-[17β-Hydroxy-3-oxoestra-4,9-dien-11β-yl]benzaldehyde-1-(E)-[O-(ethylamino)-carbonyl]oxime] | 34% | 10% | a) 10% | b) 15% |
| CCO[C@H]1CC[C@H]2[C@@H]3CCC4=CC(=O)CCC4=C3[C@@H](c3ccc(/C=N/O)cc3)C[C@]12C [Example 15, 4-(17β-Ethoxy-3-oxoestra-4,9-dien-11β-yl)benzaldehyde-1(E)-oxime] | 143% | 17% | a) 13% | b) 21% |
| CC(=O)O[C@H]1CC[C@H]2[C@@H]3CCC4=C(Br)C(=O)CCC4=C3[C@@H](c3ccc(/C=N/O)cc3)C[C@]12C [Example 13, 4-(17β-Acetoxy-4′-bromo-3-oxoestra-4,9-dien-11β-yl)benzaldehyde-1-(E)oxime] | 45% | 0.35% | a) 6% | b) 10% |
| CC12CC(c3ccc(C=NO)cc3)C3=C4CCC(=O)C=C4CCC3C1CCC2OCc1ccccc1 (stereo not drawn) [Example 17, 4-(17β-Benzyloxy-3-oxoestra-4,9-dien-11β-yl)benzaldehyde-1(E)-oxime] | 31% | 8% | a) 2% | b) 3% |
| CC12CC(c3ccc(C=NO)cc3)C3=C4CCC(=O)C=C4CCC3C1CCC2(O)CBr (stereo not drawn) [Example 10, 4-(17α-Bromomethyl-17β-hydroxy-3-oxoestra-4,9-dien-11β-yl)benzaldehyde-1(E)-oxime] | 21% | 3% | a) 0.6% | b) 0.9% |
| CC12CC(c3ccc(C=NO)cc3)C3=C4CCC(=O)C=C4CCC3C1C=CC2O (stereo not drawn) [Example 12, 4-(17β-Hydroxy-3-oxoestra-4,9,15-trien-11β-yl)benzaldehyde-1(E)-oxime] | 38% | 5% | a) 22% | b) 34% |
| 4-(4′-Bromo-17β-methoxy-3-oxoestra-4,9-dien-11β-yl)benzaldehyde-1(E)-oxime [Example 7] | 110% | 0.69% | a) 8.7% | b) 13.2% |
